≈ marks a conversion by molar mass, not a printed value. Where two headings read alike, the source gives them in different places.
Columns and labels:
Assay type in all cases: cell-based
[1] = system: efflux mutants of E. coli; assay: Broth microdilution MIC (NCCLS), E. coli efflux mutants; settings: Escherichia coli, read-out: MICs
Procedure: (§1) Representative bis-quinazolines were tested for antibacterial activity using the […] microdilution method to determine their minimum inhibitory concentrations (MICs). All compounds were tested using standard methods in accordance with NCCLS guidelines (National Committee for Clinical Laboratory Standards. 2003. Methods for dilution antimicrobial susceptibility testing for bacteria that grow aerobically. Approved Standard M-7 A-6, NCCLS, Wayne, Pa.). The bacterial strains used in the susceptibility tests were obtained from the American Type Culture Collection (ATCC) and included resistant phenotypes such as oxacillin-resistant S. aureus (ORSA) and vancomycin-resistant enterococci (VRE). The minimum bactericidal concentrations (MBCs) were determined for selected organisms. The effect of protein binding on the antibacterial activity of representative bis-quinazolines were determined by conducting MIC tests in the presence of human serum.

[2] = system: S. aureus, E. faecalis, S. pyogenes and S. pneumoniae; assay: Broth microdilution MIC (NCCLS), gram-positive strains
Summary of the method: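 MICs by broth microdilution per NCCLS M-7 A-6 against ATCC strains, including ORSA and VRE; MBCs determined for selected organisms. Serum effect assessed by repeating MIC tests with human serum present.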

M. catarrhalis = assay: Broth microdilution MIC (NCCLS), M. catarrhalis; settings: Moraxella catarrhalis, read-out: MIC range
Procedure: as §1

[3] = system: efflux mutants of P. aeruginosa; assay: Broth microdilution MIC (NCCLS), P. aeruginosa efflux mutants; settings: Pseudomonas aeruginosa, read-out: MICs
Procedure: as §1

H. influenzae = assay: Broth microdilution MIC (NCCLS), H. influenzae; settings: Haemophilus influenzae; some strains of H. influenzae
Procedure: as §1

[4] = range against some strains of S. aureus, E. faecalis, S. pyogenes and S. pneumoniae, read-out: MIC

Row | Structure (SMILES) | MIC [1] [µg/mL] | MIC [2, 4] [µg/mL] | MIC (M. catarrhalis; some strains of M. catarrhalis) [µg/mL] | MIC [3] [µg/mL] | MIC (H. influenzae) [µg/mL] | MIC [2] [µg/mL] | MIC (M. catarrhalis) [µg/mL]
1 | COc1cc(OC)c2nc(Nc3nc(O)c4cc(OCCN(C)CCO)ccc4n3)nc(C)c2c1.O=C(O)C(F)(F)F [Example 140, 2-(6,8-Dimethoxy-4-methyl-quinazolin-2-ylamino)-6-{2-[(2-hydroxy-ethyl)-methyl-amino]-ethoxy}-quinazolin-4-ol trifluoroacetate salt] | 16 to 64 | 0.06 to 16 | 2 to 64 | 64 | 16 to 32 |  | 
2 | COc1cc2nc(Nc3nc(O)c4cc(OCCNC(CO)C(C)C)ccc4n3)nc(C)c2cc1OC.O=C(O)C(F)(F)F (stereo not drawn) [Example 142, 2-(6,7-Dimethoxy-4-methyl-quinazolin-2-ylamino)-6-[2-(1-hydroxymethyl-2-methyl-propylamino)-ethoxy]-quinazolin-4-ol Trifluoroacetate salt] | 16 to 64 | 0.06 to 16 | 2 to 64 | 64 | 16 to 32 |  | 
3 | COc1cc(OC)c2nc(Nc3nc(O)c4cc(OCCNC(C)CO)ccc4n3)nc(C)c2c1.O=C(O)C(F)(F)F (stereo not drawn) [Example 143, 2-(6,8-Dimethoxy-4-methyl-quinazolin-2-ylamino)-6-[2-(2-hydroxy-1-methyl-ethylamino)-ethoxy]-quinazolin-4-ol trifluoroacetate salt] | 16 to 64 | 0.06 to 16 | 2 to 64 | 64 | 16 to 32 |  | 
4 | CCN(CC)CCOc1ccc2nc(Nc3nc(C)c4cc(OC)cc(OC)c4n3)nc(O)c2c1.O=C(O)C(F)(F)F [Example 144, 6-(2-Diethylamino-ethoxy)-2-(6,8-dimethoxy-4-methyl-quinazolin-2-ylamino)-quinazolin-4-ol trifluoroacetate salt] | 16 to 64 | 0.06 to 16 | 2 to 64 | 64 | 16 to 32 |  | 
5 | COc1cc2nc(Nc3nc(O)c4cc(OCCN5CCCCC5)ccc4n3)nc(C)c2cc1OC.O=C(O)C(F)(F)F [Example 145, 2-(6,7-Dimethoxy-4-methyl-quinazolin-2-ylamino)-6-(2-piperidin-1-yl-ethoxy)-quinazolin-4-ol trifluoroacetate salt] | 16 to 64 | 0.06 to 16 | 2 to 64 | 64 | 16 to 32 |  | 
6 | COc1cc2nc(Nc3nc(O)c4cc(OCCN(C)C)ccc4n3)nc(C)c2cc1OC.O=C(O)C(F)(F)F [Example 146, 2-(6,7-Dimethoxy-4-methyl-quinazolin-2-ylamino)-6-(2-dimethylamino-ethoxy)-quinazolin-4-ol trifluoroacetate salt] | 16 to 64 | 0.06 to 16 | 2 to 64 | 64 | 16 to 32 |  | 
7 | COc1cc2nc(Nc3nc(O)c4cc(OCCN5CCN(C)CC5)ccc4n3)nc(C)c2cc1OC.O=C(O)C(F)(F)F [Example 147, 2-(6,7-Dimethoxy-4-methyl-quinazolin-2-ylamino)-6-[2-(4-methyl-piperazin-1-yl)-ethoxy]-quinazolin-4-ol trifluoroacetate salt] | 16 to 64 | 0.06 to 16 | 2 to 64 | 64 | 16 to 32 |  | 
8 | COc1cc2nc(Nc3nc(O)c4cc(OCCN5CCCC5)ccc4n3)nc(C)c2cc1OC.O=C(O)C(F)(F)F [Example 148, 2-(6,7-Dimethoxy-4-methyl-quinazolin-2-ylamino)-6-(2-pyrrolidin-1-yl-ethoxy)-quinazolin-4-ol trifluoroacetate salt] | 16 to 64 | 0.06 to 16 | 2 to 64 | 64 | 16 to 32 |  | 
9 | CCN(CC)CCOc1ccc2nc(Nc3nc(C)c4cc(OC)c(OC)cc4n3)nc(O)c2c1.O=C(O)C(F)(F)F [Example 149, 6-(2-Diethylamino-ethoxy)-2-(6,7-dimethoxy-4-methyl-quinazolin-2-ylamino)-quinazolin-4-ol trifluoroacetate salt] | 16 to 64 | 0.06 to 16 | 2 to 64 | 64 | 16 to 32 |  | 
10 | COc1cc2nc(Nc3nc(O)c4cc(OCCCN5CCCC5)ccc4n3)nc(C)c2cc1OC.O=C(O)C(F)(F)F [Example 151, 2-(6,7-Dimethoxy-4-methyl-quinazolin-2-ylamino)-6-(3-pyrrolidin-1-yl-propoxy)-quinazolin-4-ol trifluoroacetate salt] | 16 to 64 | 0.06 to 16 | 2 to 64 | 64 | 16 to 32 |  | 
11 | COc1cc2nc(Nc3nc(O)c4cc(OCCN5CCC(O)C5)ccc4n3)nc(C)c2cc1OC.O=C(O)C(F)(F)F (stereo not drawn) [Example 154, 2-(6,7-Dimethoxy-4-methyl-quinazolin-2-ylamino)-6-[2-(3-hydroxy-pyrrolidin-1-yl)-ethoxy]-quinazolin-4-ol trifluoroacetate salt] | 16 to 64 | 0.06 to 16 | 2 to 64 | 64 | 16 to 32 |  | 
12 | COc1cc2nc(Nc3nc(O)c4cc(OCCN5CCCC(O)C5)ccc4n3)nc(C)c2cc1OC.O=C(O)C(F)(F)F (stereo not drawn) [Example 157, 2-(6,7-Dimethoxy-4-methyl-quinazolin-2-ylamino)-6-[2-(3-hydroxy-piperidin-1-yl)-ethoxy]-quinazolin-4-ol trifluoroacetate salt] | 16 to 64 | 0.06 to 16 | 2 to 64 | 64 | 16 to 32 |  | 
13 | COc1cc2nc(Nc3nc(O)c4cc(OCCN(CCO)CCO)ccc4n3)nc(C)c2cc1OC.O=C(O)C(F)(F)F [Example 158, 6-{2-[Bis-(2-hydroxy-ethyl)-amino]-ethoxy}-2-(6,7-dimethoxy-4-methyl-quinazolin-2-ylamino)-quinazolin-4-ol trifluoroacetate salt] | 16 to 64 | 0.06 to 16 | 2 to 64 | 64 | 16 to 32 |  | 
14 | CCN(CCO)CCOc1ccc2nc(Nc3nc(C)c4cc(OC)c(OC)cc4n3)nc(O)c2c1.O=C(O)C(F)(F)F [Example 159, 2-(6,7-Dimethoxy-4-methyl-quinazolin-2-ylamino)-6-{2-[ethyl-(2-hydroxy-ethyl)-amino]-ethoxy}-quinazolin-4-ol trifluoroacetate salt] | 16 to 64 | 0.06 to 16 | 2 to 64 | 64 | 16 to 32 |  | 
15 | COc1cc(OC)c2nc(Nc3nc(O)c4cc(OCCN5CCC(O)C5)ccc4n3)nc(C)c2c1.O=C(O)C(F)(F)F (stereo not drawn) [Example 160, 2-(6,8-Dimethoxy-4-methyl-quinazolin-2-ylamino)-6-[2-(3-hydroxy-pyrrolidin-1-yl)-ethoxy]-quinazolin-4-ol trifluoroacetate salt] | 16 to 64 | 0.06 to 16 | 2 to 64 | 64 | 16 to 32 |  | 
16 | COc1cc2nc(Nc3nc(O)c4cc(OCCNCCO)ccc4n3)nc(C)c2cc1OC.O=C(O)C(F)(F)F [Example 161, 2-(6,7-Dimethoxy-4-methyl-quinazolin-2-ylamino)-6-[2-(2-hydroxy-ethylamino)-ethoxy]-quinazolin-4-ol trifluoroacetate salt] | 16 to 64 | 0.06 to 16 | 2 to 64 | 64 | 16 to 32 |  | 
17 | COc1cc2nc(Nc3nc(O)c4cc(OCCN5CCC(N)C5)ccc4n3)nc(C)c2cc1OC (stereo not drawn) [Example 163, 6-[2-(3-Amino-pyrrolidin-1-yl)-ethoxy]-2-(6,7-dimethoxy-4-methyl-quinazolin-2-ylamino)-quinazolin-4-ol] | 16 to 64 (≈ 32.5 to 130 µM) |  |  | 64 (≈ 130 µM) | 16 to 32 (≈ 32.5 to 65.1 µM) | 0.06 to 16 (≈ 0.122 to 32.5 µM) | 2 to 64 (≈ 4.07 to 130 µM)
18 | COc1cc2nc(Nc3nc(O)c4cc(OCCN5CCCC5CO)ccc4n3)nc(C)c2cc1OC.O=C(O)C(F)(F)F (stereo not drawn) [Example 164, 2-(6,7-Dimethoxy-4-methyl-quinazolin-2-ylamino)-6-[2-(2-hydroxymethyl-pyrrolidin-1-yl)-ethoxy]-quinazolin-4-ol trifluoroacetate salt] | 16 to 64 | 0.06 to 16 | 2 to 64 | 64 | 16 to 32 |  | 
19 | COc1cc2nc(Nc3nc(O)c4cc(OCCNC(CO)CO)ccc4n3)nc(C)c2cc1OC.O=C(O)C(F)(F)F [Example 165, 2-{2[-2-(6,7-Dimethoxy-4-methyl-quinazolin-2-ylamino)-4-hydroxy-quinazolin-6-yloxy]-ethylamino}-propane-1,3-diol trifluoroacetate salt] | 16 to 64 | 0.06 to 16 | 2 to 64 | 64 | 16 to 32 |  | 
20 | COc1cc(OC)c2nc(Nc3nc(O)c4cc(OCCN5CCCC5)ccc4n3)nc(C)c2c1.O=C(O)C(F)(F)F [Example 166, 2-(6,8-Dimethoxy-4-methyl-quinazolin-2-ylamino)-6-(2-pyrrolidin-1-yl-ethoxy)-quinazolin-4-ol trifluoroacetate salt] | 16 to 64 | 0.06 to 16 | 2 to 64 | 64 | 16 to 32 |  | 
21 | COc1cc2nc(Nc3nc(O)c4cc(OCCNC(C)CO)ccc4n3)nc(C)c2cc1OC.O=C(O)C(F)(F)F (stereo not drawn) [Example 169, 2-(6,7-Dimethoxy-4-methyl-quinazolin-2-ylamino)-6-[2-(2-hydroxy-1-methyl-ethylamino)-ethoxy]-quinazolin-4-ol trifluoroacetate salt] | 16 to 64 | 0.06 to 16 | 2 to 64 | 64 | 16 to 32 |  | 

Source: patent publication US20050124562A1, “Bis-quinazoline compounds for the treatment of bacterial infections” (priority 2003, published 2005)
